According to patent US8937064B2, “Pyrazolo[1,5-a]pyrimidines useful as JAK2 inhibitors” (Vertex Pharmaceuticals Incorporated, priority 2007, dated 2015):

What was measured:
JAK3 = biological target: T1, JAK3 (Homo sapiens, UniProt P52333); experiment: JAK3 Inhibition Assay; type: biochemical; details: 1 nM JAK3, 1 μM poly(Glu)4Tyr, 5 μM ATP, 25° C., 33P incorporation
T1 sequence (P52333 1-1124): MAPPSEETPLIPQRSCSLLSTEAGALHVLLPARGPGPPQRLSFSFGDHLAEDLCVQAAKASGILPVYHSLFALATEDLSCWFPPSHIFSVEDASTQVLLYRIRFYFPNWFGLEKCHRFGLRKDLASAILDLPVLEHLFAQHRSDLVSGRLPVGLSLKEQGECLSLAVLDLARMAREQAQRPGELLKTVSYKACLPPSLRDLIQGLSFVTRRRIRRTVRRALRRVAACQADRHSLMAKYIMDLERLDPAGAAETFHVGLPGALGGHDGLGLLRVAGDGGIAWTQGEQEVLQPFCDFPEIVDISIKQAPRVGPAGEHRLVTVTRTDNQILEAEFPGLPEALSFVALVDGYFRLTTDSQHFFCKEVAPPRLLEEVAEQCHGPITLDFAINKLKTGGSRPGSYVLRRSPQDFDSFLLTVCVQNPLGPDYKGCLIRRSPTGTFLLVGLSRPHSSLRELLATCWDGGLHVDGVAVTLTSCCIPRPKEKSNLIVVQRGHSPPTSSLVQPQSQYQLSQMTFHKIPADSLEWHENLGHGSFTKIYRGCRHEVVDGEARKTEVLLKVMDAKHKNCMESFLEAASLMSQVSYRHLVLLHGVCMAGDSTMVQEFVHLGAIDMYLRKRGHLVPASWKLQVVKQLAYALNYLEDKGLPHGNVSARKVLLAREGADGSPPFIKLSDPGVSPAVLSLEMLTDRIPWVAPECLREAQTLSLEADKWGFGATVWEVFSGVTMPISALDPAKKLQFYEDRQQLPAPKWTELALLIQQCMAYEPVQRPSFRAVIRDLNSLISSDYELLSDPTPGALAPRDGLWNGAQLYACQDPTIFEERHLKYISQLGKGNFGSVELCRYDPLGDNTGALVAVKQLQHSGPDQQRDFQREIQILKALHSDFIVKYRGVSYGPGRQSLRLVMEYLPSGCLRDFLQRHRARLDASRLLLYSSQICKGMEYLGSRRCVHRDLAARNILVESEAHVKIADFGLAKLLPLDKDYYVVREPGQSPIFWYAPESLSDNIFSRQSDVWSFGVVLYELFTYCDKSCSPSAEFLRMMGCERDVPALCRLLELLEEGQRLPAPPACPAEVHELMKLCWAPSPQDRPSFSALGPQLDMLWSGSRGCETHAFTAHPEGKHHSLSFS

JAK-2 enzyme = JAK-2 enzyme (Homo sapiens, UniProt O60674); experiment: JAK2 Inhibition Assay
Sequence of JAK-2 enzyme (O60674 whole entry): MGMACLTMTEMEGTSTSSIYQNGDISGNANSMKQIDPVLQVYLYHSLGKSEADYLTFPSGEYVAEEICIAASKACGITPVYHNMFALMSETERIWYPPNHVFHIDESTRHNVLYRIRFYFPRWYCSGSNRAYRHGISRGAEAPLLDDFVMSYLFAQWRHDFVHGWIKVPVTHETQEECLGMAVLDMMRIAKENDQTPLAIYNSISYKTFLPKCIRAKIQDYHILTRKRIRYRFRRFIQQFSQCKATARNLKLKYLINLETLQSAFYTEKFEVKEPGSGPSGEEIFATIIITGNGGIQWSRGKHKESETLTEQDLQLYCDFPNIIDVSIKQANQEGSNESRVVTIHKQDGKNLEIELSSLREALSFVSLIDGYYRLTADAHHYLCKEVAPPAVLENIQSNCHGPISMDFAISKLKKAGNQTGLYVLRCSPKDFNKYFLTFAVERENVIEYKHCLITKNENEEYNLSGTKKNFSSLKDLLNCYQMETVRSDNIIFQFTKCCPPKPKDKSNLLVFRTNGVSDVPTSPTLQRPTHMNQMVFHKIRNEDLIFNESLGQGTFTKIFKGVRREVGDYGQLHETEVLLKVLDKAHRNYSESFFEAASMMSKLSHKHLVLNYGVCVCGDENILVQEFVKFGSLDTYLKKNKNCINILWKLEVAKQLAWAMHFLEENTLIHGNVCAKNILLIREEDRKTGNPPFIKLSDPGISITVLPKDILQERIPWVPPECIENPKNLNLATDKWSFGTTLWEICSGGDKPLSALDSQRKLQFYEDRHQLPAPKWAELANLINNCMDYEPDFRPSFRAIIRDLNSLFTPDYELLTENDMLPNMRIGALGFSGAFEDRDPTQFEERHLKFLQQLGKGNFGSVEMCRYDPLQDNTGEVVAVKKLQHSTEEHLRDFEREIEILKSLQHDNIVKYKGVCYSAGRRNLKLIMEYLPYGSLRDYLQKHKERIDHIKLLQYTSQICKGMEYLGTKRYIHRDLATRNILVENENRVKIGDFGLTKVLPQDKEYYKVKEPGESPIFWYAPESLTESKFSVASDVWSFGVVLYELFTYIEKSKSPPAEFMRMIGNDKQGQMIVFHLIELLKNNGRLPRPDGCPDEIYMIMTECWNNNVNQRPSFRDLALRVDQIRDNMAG

Compound	Ki (JAK3) [µM]	Ki (JAK-2 enzyme) [µM]
O=C(Nc1ccnc(-c2cnn3cccnc23)c1)c1ccc(F)cc1F [Compound 229]	0.5 to 5	0.1 to 0.5
C[C@H](Nc1cc(-c2c(N)nn3cccnc23)nc(OCC2CCC2)n1)c1ccc(F)cc1 [Compound 148]	0.1 to 0.5	0.01 to 0.1
Nc1nn2cccnc2c1-c1cc(NCc2csc3ccccc23)ncn1 [Compound 31]	0.1 to 0.5	0.01 to 0.1
C[C@H](Nc1cc(-c2cnn3cccnc23)nc(OCC2CCCC2)n1)c1ccc(F)cc1F [Compound 223]	0.1 to 0.5	0.01 to 0.1
CC(C)OCCOc1nc(N[C@@H](C)c2ccc(F)cc2F)cc(-c2cnn3cccnc23)n1 [Compound 219]	0.01 to 0.1	< 0.01
C[C@H](Nc1cc(-c2c(N)nn3cccnc23)nc(OCC2COC(C)(C)O2)n1)c1ccc(F)cc1 (stereo partly drawn) [Compound 168]	0.01 to 0.1	< 0.01
O=C(Nc1ccnc(-c2cnn3cccnc23)c1)c1ccccc1F [Compound 228]	0.5 to 5	0.1 to 0.5
O=C(Nc1ccnc(-c2cnn3cccnc23)c1)c1ccc(F)c(F)c1 [Compound 231]	0.5 to 5	0.1 to 0.5
CCC1c2ccccc2CCN1c1cc(-c2c(N)nn3cccnc23)ncn1 (stereo not drawn) [Compound 64]	0.1 to 0.5	< 0.01
C[C@H](Oc1cc(-c2c(N)nn3cccnc23)ncn1)c1ccccc1 [Compound 68]	0.01 to 0.1	< 0.01
CC1CC1COc1nc(N[C@@H](C)c2ccc(F)cc2)cc(-c2c(N)nn3cccnc23)n1 (stereo partly drawn) [Compound 158]	0.1 to 0.5	0.01 to 0.1
CCN(CC)CCOc1nc(N[C@@H](C)c2ccc(F)cc2F)cc(-c2cnn3cccnc23)n1 [Compound 208]	0.01 to 0.1	< 0.01
N#Cc1cccc(C(=O)Nc2ccnc(-c3cnn4cccnc34)c2)c1 [Compound 230]	0.5 to 5	0.1 to 0.5
C[C@H](Nc1cc(-c2cnn3cccnc23)nc(OCC2CCCNC2)n1)c1ccc(F)cc1F (stereo partly drawn) [Compound 202]	0.01 to 0.1	< 0.01
C#CCOc1nc(N[C@@H](C)c2ccc(F)cc2)cc(-c2c(N)nn3cccnc23)n1 [Compound 150]	0.01 to 0.1	< 0.01
Nc1nn2cccnc2c1-c1cc(NCc2ccc(C(F)(F)F)cc2F)ncn1 [Compound 46]	0.01 to 0.1	< 0.01
CC(C)CCCOc1nc(N[C@@H](C)c2ccc(F)cc2)cc(-c2c(N)nn3cccnc23)n1 [Compound 167]	0.5 to 5	0.01 to 0.1
Nc1nn2cccnc2c1-c1cc(O[C@H](c2ccccc2)C(F)(F)F)ncn1 [Compound 69]	0.1 to 0.5	0.01 to 0.1
COCCOc1nc(N[C@@H](C)c2ccc(F)cc2F)cc(-c2cnn3cccnc23)n1 [Compound 196]	0.01 to 0.1	< 0.01
CC#CCCOc1nc(N[C@@H](C)c2ccc(F)cc2)cc(-c2c(N)nn3cccnc23)n1 [Compound 155]	0.1 to 0.5	< 0.01
CNC(=O)CC(Nc1cc(-c2cnn3cccnc23)ncn1)c1ccc(F)cc1 (stereo not drawn) [Compound 141]	0.01 to 0.1	< 0.01
C[C@H](Nc1cc(-c2c(N)nn3cccnc23)nc(OCCCN(C)C)n1)c1ccc(F)cc1 [Compound 154]	0.01 to 0.1	< 0.01
C[C@@H](c1ccccc1)N(C)c1cc(-c2c(N)nn3cccnc23)ncn1 [Compound 19]	0.1 to 0.5	0.01 to 0.1
C[C@H](Nc1cc(-c2c(N)nn3cccnc23)nc(OCC2CCCN2)n1)c1ccc(F)cc1F (stereo partly drawn) [Compound 142]	0.1 to 0.5	0.01 to 0.1

Compound	Ki (JAK3) [µM]	Ki (JAK-2 enzyme) [µM]
C[C@H](Nc1cc(-c2cnn3cccnc23)nc(OCCN2CCCC2)n1)c1ccc(F)cc1F [Compound 204]	0.01 to 0.1	< 0.01
CC[C@H](Nc1cc(-c2c(N)nn3ccc(C)nc23)ncn1)c1ccc(F)c(F)c1 [Compound 94]	0.01 to 0.1	< 0.01
C[C@H](Nc1cc(-c2cnn3cccnc23)nc(OCCN2CCCC2=O)n1)c1ccc(F)cc1F [Compound 209]	0.01 to 0.1	< 0.01
CC(C)[C@H](Nc1cc(-c2cnn3cccnc23)ncn1)c1ccc(F)cc1F [Compound 121]	0.01 to 0.1	< 0.01
Nc1nn2cccnc2c1-c1cc(OC(c2ccccc2)C2CC2)ncn1 (stereo not drawn) [Compound 66]	> 5	0.5 to 5
C[C@H](Nc1cc(-c2cnn3cccnc23)nc(OCCN(C)C)n1)c1ccc(F)cc1F [Compound 197]	0.01 to 0.1	< 0.01
C[C@@H](Nc1cc(-c2cnn3cccnc23)ncn1)c1ccc(Cl)cc1 [Compound 146]	0.5 to 5	0.01 to 0.1
C[C@H](Nc1cc(-c2c(N)nn3cccnc23)nc(C#N)n1)c1ccc(F)cc1F [Compound 140]	< 0.01	< 0.01
CC[C@H](Nc1cc(-c2c(N)nn3cccnc23)ncn1)c1ccc(Cl)cc1F [Compound 83]	0.1 to 0.5	< 0.01
C[C@H](Nc1cc(-c2c(N)nn3cccnc23)nc(OCCN2CCOCC2)n1)c1ccc(F)cc1 [Compound 109]	0.01 to 0.1	< 0.01
CC[C@H](Nc1cc(-c2c(N)nn3cccnc23)ncn1)c1ccc(F)c(F)c1 [Compound 62]	0.01 to 0.1	< 0.01
COCCC(=O)Nc1nc(N[C@@H](C)c2ccc(F)cc2F)cc(-c2cnn3cccnc23)n1 [Compound 184]	0.1 to 0.5	< 0.01
C[C@H](Nc1cc(-c2c(N)nn3ccc(C(F)(F)F)nc23)ncn1)c1ccc(F)cc1F [Compound 135]	0.1 to 0.5	0.01 to 0.1
C[C@H](Nc1cc(-c2cnn3cccnc23)ncn1)c1ccc(F)cc1F [Compound 117]	0.01 to 0.1	< 0.01
Cc1ccc(CNc2cc(-c3c(N)nn4cccnc34)ncn2)o1 [Compound 26]	0.1 to 0.5	0.01 to 0.1
Nc1nn2cccnc2c1-c1cc(NCc2cc(C(F)(F)F)ccc2F)ncn1 [Compound 45]	0.1 to 0.5	0.01 to 0.1
C[C@H](Nc1cc(-c2cnn3cccnc23)nc(OC2CCN(C)CC2)n1)c1ccc(F)cc1F [Compound 200]	0.1 to 0.5	< 0.01
C[C@H](Nc1cc(-c2cnn3cccnc23)nc(OCCNC(C)(C)C)n1)c1ccc(F)cc1F [Compound 206]	0.01 to 0.1	< 0.01
C[C@H](Nc1cc(-c2c(N)nn3cccnc23)nc(OCCCC2CCCC2)n1)c1ccc(F)cc1 [Compound 177]	0.5 to 5	0.1 to 0.5
CC[C@H](Nc1cc(-c2c(N)nn3cccnc23)ncn1)c1ccc(F)cc1Cl [Compound 82]	0.01 to 0.1	< 0.01
CC(Oc1cc(-c2c(N)nn3cccnc23)ncn1)c1ccc(F)cc1 (stereo not drawn) [Compound 71]	0.01 to 0.1	< 0.01
CC[C@H](Nc1ccnc(-c2cnn3cccnc23)n1)c1ccc(F)c(F)c1 [Compound 225]	0.5 to 5	0.01 to 0.1
CCC#CC(C)Oc1nc(N[C@@H](C)c2ccc(F)cc2)cc(-c2c(N)nn3cccnc23)n1 (stereo partly drawn) [Compound 179]	0.5 to 5	0.01 to 0.1
C=CCOCCOc1nc(N[C@@H](C)c2ccc(F)cc2F)cc(-c2cnn3cccnc23)n1 [Compound 221]	0.01 to 0.1	< 0.01
